Experimental data published in BindingDB's records for doi:10.1021/acsmedchemlett.3c00041 (Insilico Medicine Hong Kong, 2023).

Each molecule was assayed against Tyrosine-protein kinase JAK1 (Homo sapiens, UniProt P23458) (assay: Inhibition of JAK1 (unknown origin)).
Sequence of Tyrosine-protein kinase JAK1 (P23458 whole entry): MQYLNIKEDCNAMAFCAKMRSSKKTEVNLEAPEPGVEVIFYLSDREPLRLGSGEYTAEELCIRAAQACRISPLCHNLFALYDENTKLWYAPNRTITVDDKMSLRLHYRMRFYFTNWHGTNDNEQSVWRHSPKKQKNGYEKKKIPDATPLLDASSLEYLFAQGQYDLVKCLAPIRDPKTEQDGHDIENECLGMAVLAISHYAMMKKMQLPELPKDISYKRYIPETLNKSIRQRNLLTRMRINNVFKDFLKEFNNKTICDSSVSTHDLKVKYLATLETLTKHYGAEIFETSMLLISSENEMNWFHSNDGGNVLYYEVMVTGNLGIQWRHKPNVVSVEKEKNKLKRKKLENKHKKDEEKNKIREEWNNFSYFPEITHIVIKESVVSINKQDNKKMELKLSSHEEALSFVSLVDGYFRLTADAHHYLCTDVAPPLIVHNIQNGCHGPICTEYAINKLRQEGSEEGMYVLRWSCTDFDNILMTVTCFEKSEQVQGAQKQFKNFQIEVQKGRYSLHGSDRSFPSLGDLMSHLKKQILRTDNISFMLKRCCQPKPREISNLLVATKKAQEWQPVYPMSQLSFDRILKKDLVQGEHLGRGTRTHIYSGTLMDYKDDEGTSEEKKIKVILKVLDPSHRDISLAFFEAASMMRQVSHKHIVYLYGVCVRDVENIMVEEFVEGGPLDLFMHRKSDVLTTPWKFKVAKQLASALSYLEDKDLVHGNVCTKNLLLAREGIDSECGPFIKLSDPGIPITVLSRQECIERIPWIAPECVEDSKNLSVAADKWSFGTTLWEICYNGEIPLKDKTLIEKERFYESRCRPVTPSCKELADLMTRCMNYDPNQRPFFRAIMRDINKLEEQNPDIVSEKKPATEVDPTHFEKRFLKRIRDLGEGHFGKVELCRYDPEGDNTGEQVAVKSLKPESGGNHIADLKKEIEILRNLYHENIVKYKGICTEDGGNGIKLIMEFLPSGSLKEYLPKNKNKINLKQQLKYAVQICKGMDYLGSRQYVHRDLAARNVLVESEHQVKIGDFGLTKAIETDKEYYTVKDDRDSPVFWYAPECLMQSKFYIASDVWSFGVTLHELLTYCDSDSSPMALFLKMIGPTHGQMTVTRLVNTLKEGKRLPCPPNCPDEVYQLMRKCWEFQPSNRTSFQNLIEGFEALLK

IC50 [nM]	Compound
500	CCC1CN(C(=O)NCC(F)(F)F)CC1NCc1ccc(C)nc1-c1cnc2[nH]ccc2c1 (stereo not drawn)
930	CCC1CN(C(=O)NCC(F)(F)F)CC1N(C)c1ncnc2[nH]ccc12 (stereo not drawn)
9600	CCC1CN(C(=O)NCC(F)(F)F)CC1c1nc(N)nc2[nH]ccc12 (stereo not drawn)
